Source: publication PMC11791039, “A split intein and split luciferase-coupled system for detecting protein-protein interactions” (Molecular Systems Biology, 2024)
Values joined by “and” are separate entries in the source; they are usually repeats but may differ in a detail not shown here. Equal entries are not always repeated.

How the values were obtained:
Assay type in all cases: cell-based
EGFR(L858R)/SHC1 [1] = molecular target: T1, EGFR(L858R)/SHC1 (Homo sapiens, UniProt P00533, L858R); experiment: SIMPL2 assay EGFR(L858R)/SHC1; conditions: replicates 1-4
T1 construct: β10-IN (tNLuc β10 peptide + GP41-1 split intein N fragment) (C); V5; expressed in transfected cells

EGFR(WT)/SHC1 [2] = molecular target: T2, EGFR(WT)/SHC1 (Homo sapiens, UniProt P00533); experiment: Western blot of EGFR(WT)-SHC1 splicing; conditions: inhibitor 100 nM, 16 h
T2 construct: β10-IN (tNLuc β10 peptide + GP41-1 split intein N fragment) (C); V5; expressed in transfected cells

control = molecular target: T3, control (Homo sapiens, UniProt P01116, G12C); experiment: SIMPL2 assay, control of Fig. 3B-D; conditions: replicates 1-4
T3 construct: IC-β9 (GP41-1 split intein C fragment + tNLuc β9 peptide) (N); FLAG; expressed in transfected cells

EGFR(WT)/SHC1 [3] = molecular target: T2, EGFR(WT)/SHC1; experiment: SIMPL2 assay EGFR(WT)/SHC1; conditions: replicates 1-4;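 note: 0% is no doxycycline or compound and 100% is doxycycline without compound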
EGFR(L858R)/SHC1 [4] = molecular target: T1, EGFR(L858R)/SHC1; experiment: Western blot of EGFR(L858R)-SHC1 splicing; conditions: inhibitor 100 nM, 16 h

T3 sequence (P01116 1-185 isoform P01116-2 G12C limits assumed): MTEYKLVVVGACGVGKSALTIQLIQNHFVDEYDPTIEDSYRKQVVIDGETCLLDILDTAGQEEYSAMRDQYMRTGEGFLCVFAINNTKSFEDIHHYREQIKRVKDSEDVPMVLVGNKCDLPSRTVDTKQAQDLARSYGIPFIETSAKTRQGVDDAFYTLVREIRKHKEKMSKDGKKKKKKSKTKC

COc1cc2ncnc(Nc3cccc(Cl)c3)c2cc1OC [AG1478]
SIMPL2 signal, L858R (Fig. 3B) (EGFR(L858R)/SHC1 [1]; AG1478 6.4e-6 uM): 91.6588 and 97.6255 and 114.285 and 112.912
SIMPL2 signal, L858R (Fig. 3B) (EGFR(L858R)/SHC1 [1]; AG1478 3.2e-5 uM): 89.0187 and 76.3196 and 106.708 and 96.4903
SIMPL2 signal, L858R (Fig. 3B) (EGFR(L858R)/SHC1 [1]; AG1478 0.00016 uM): 80.0422 and 76.3461 and 104.596 and 91.474
SIMPL2 signal, L858R (Fig. 3B) (EGFR(L858R)/SHC1 [1]; AG1478 0.0008 uM): 78.2733 and 74.7356 and 79.963 and 75.2372
SIMPL2 signal, L858R (Fig. 3B) (EGFR(L858R)/SHC1 [1]; AG1478 0.004 uM): 44.1628 and 44.3476 and 45.9581 and 41.1531
SIMPL2 signal, L858R (Fig. 3B) (EGFR(L858R)/SHC1 [1]; AG1478 0.02 uM): 13.9069 and 29.2725 and 26.9756 and 25.1011
SIMPL2 signal, L858R (Fig. 3B) (EGFR(L858R)/SHC1 [1]; AG1478 0.1 uM): 16.4414 and 17.2863 and 10.8707 and 9.471
SIMPL2 signal, L858R (Fig. 3B) (EGFR(L858R)/SHC1 [1]; AG1478 0.5 uM): 3.505 and 4.482 and 4.93 and 3.98
splicing between EGFR(WT) and SHC1 (western blot) (EGFR(WT)/SHC1 [2]): reduced or abolished
SIMPL2 signal, control (Fig. 3B) (control; AG1478 6.4e-6 uM): 78.4402 and 101.308 and 94.2905 and 84.6604
SIMPL2 signal, control (Fig. 3B) (control; AG1478 3.2e-5 uM): 100.905 and 96.8875 and 97.961 and 100.282
SIMPL2 signal, control (Fig. 3B) (control; AG1478 0.00016 uM): 91.8672 and 101.363 and 100.305 and 106.707
SIMPL2 signal, control (Fig. 3B) (control; AG1478 0.0008 uM): 94.4089 and 99.0424 and 101.553 and 109.943
SIMPL2 signal, control (Fig. 3B) (control; AG1478 0.004 uM): 91.5435 and 102.468 and 100.85 and 97.0453
SIMPL2 signal, control (Fig. 3B) (control; AG1478 0.02 uM): 77.4062 and 87.6599 and 89.9806 (2×)
SIMPL2 signal, control (Fig. 3B) (control; AG1478 0.1 uM): 82.8606 and 100.092 and 105.918 and 87.8651
SIMPL2 signal, control (Fig. 3B) (control; AG1478 0.5 uM): 102.547 and 94.4247 and 100.724 and 111.159
SIMPL2 signal, WT (Fig. 3B) (EGFR(WT)/SHC1 [3]; AG1478 6.4e-6 uM): 102.427 and 84.7059 and 104.371 and 106.871
SIMPL2 signal, WT (Fig. 3B) (EGFR(WT)/SHC1 [3]; AG1478 3.2e-5 uM): 77.5953 and 99.0938 and 89.9278 and 95.7607
SIMPL2 signal, WT (Fig. 3B) (EGFR(WT)/SHC1 [3]; AG1478 0.00016 uM): 73.3734 and 100.927 and 94.8163 and 93.2609
SIMPL2 signal, WT (Fig. 3B) (EGFR(WT)/SHC1 [3]; AG1478 0.0008 uM): 88.6501 and 85.7058 and 98.1494 and 104.871
SIMPL2 signal, WT (Fig. 3B) (EGFR(WT)/SHC1 [3]; AG1478 0.004 uM): 74.54 and 81.3728 and 67.2627 and 74.6511
SIMPL2 signal, WT (Fig. 3B) (EGFR(WT)/SHC1 [3]; AG1478 0.02 uM): 70.0958 and 71.7624 and 65.6517 and 61.8742
SIMPL2 signal, WT (Fig. 3B) (EGFR(WT)/SHC1 [3]; AG1478 0.1 uM): 65.485 and 59.9854 and 59.7632 and 57.8189
SIMPL2 signal, WT (Fig. 3B) (EGFR(WT)/SHC1 [3]; AG1478 0.5 uM): 29.8764 and 30.6541 and 19.6549 and 21.0437
splicing between EGFR(L858R) and SHC1 (western blot) (EGFR(L858R)/SHC1 [4]): reduced or abolished
